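Method: 48-hour compound exposure of cells in 96-well plates, five concentrations, linear interpolation of endpoints. GI50 marks 50% less growth. Definition used: TGI = concentration required for complete inhibition of growth.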
What was measured:
Experiment in all cases: NCI-60 cell line screen, 48 h
KM12 colon = test system: KM12 colon
M19-MEL melanoma = test system: M19-MEL melanoma
PC-3 prostate = test system: PC-3 prostate
DMS 273 small cell lung = test system: DMS 273 small cell lung
XF 498 CNS = test system: XF 498 CNS
HCT-116 colon = test system: HCT-116 colon
BT-549 breast = test system: BT-549 breast
DMS 114 small cell lung = test system: DMS 114 small cell lung
UO-31 renal = test system: UO-31 renal
HOP-18 NSCLC = test system: HOP-18 NSCLC
T-47D breast = test system: T-47D breast
SK-MEL-2 melanoma = test system: SK-MEL-2 melanoma
SNB-78 CNS = test system: SNB-78 CNS

Row | Structure (SMILES) | TGI (KM12 colon) [µM] | TGI (M19-MEL melanoma) [µM] | TGI (PC-3 prostate) [µM] | TGI (DMS 273 small cell lung) [µM] | TGI (XF 498 CNS) [µM] | TGI (HCT-116 colon) [µM] | TGI (BT-549 breast) [µM] | TGI (DMS 114 small cell lung) [µM] | TGI (UO-31 renal) [µM] | TGI (HOP-18 NSCLC) [µM] | TGI (T-47D breast) [µM] | TGI (SK-MEL-2 melanoma) [µM] | TGI (SNB-78 CNS) [µM] | GI50 (HCT-116 colon) [µM]
1 | O=c1c2ccccc2n2nnc3ccc(NCCNCCO)c1c32 | 7.44 | 8.61 | 4.89 | 11.1 | 25.2 | 10.3 | 10.1 | 13.4 | 3.78 | 8.67 | 29.1 | 10.5 | 27.6 | –
2 | Nc1ncnc2c1ncn2C1C(O)C=C(CO)C1O (configuration not stated) | > 625 | > 625 | – | > 625 | < 0.0625 | > 625 | – | > 625 | > 625 | > 625 | – | > 625 | > 625 | –
3 | CC1CC(C)(C)CC(OCCN2CCCCC2)(c2ccccc2)C1 (configuration not stated) | 21.4 | – | 25.6 | – | – | 18.9 | 27.8 | – | 20.6 | – | 29.5 | 33.4 | – | –
4 | CCOC(=O)C(NC(=O)c1ccccc1)(Nc1ccc(S(=O)(=O)Nc2cc(C)on2)cc1)C(F)(F)F (configuration not stated) | > 100 | – | > 100 | – | – | > 100 | > 100 | – | > 100 | – | > 100 | > 100 | – | –
5 | Cc1c(C)c2c(c(N)c1C#N)C(=O)N(NC(=S)Nc1ccccc1)C2=O | > 100 | – | > 100 | – | – | > 100 | > 100 | – | > 100 | – | > 100 | > 100 | – | –
6 | O=C(O)C1C2OC(C(Br)C2Br)C1C(=O)O (configuration not stated) | > 100 | – | > 100 | – | – | > 100 | > 100 | – | > 100 | – | > 100 | > 100 | – | –
7 | CCOC1OC(C)(C=C(C#N)C#N)CCC1C (configuration not stated) | > 100 | – | > 100 | – | – | > 100 | > 70.3 | – | 97.7 | – | > 100 | > 100 | – | –
8 | CC(=O)CCN1CC2CN=NC2(C#N)C1 (configuration not stated) | > 100 | – | > 100 | – | – | > 100 | > 100 | – | > 100 | – | > 100 | > 100 | – | –
9 | COC1=C(OC)C(=O)C(Cc2c(-c3ccccc3)nc3sc(Cl)cn23)=C(C)C1=O | 41 | – | 33.3 | – | – | 39.9 | 30.2 | – | 30.5 | – | > 100 | 36.5 | – | –
10 | COc1cc2c(cc1OCCN1CCN(CCOc3cc4c(cc3OC)C(=O)N3CCC[C@H]3C=N4)CC1)N=C[C@@H]1CCCN1C2=O | > 75.3 | – | > 93.9 | – | – | > 86.8 | > 79.1 | – | > 73.7 | – | > 100 | 58.7 | – | –
11 | C=C(C)C1CCC2(C)C1CCC1(C)C2CCC2C3(C)C4OC(OC4=O)C(C)(C)C3CCC21C (configuration not stated) | > 100 | – | > 100 | – | – | > 100 | > 100 | – | > 100 | – | > 100 | > 100 | – | –
12 | Fc1nc(Sc2ncnc3nc[nH]c23)nc(-c2c3ccccc3c3sc4ccccc4n23)n1 | > 100 | – | > 100 | – | – | > 100 | > 100 | – | > 100 | – | > 100 | > 100 | – | –
13 | CC[P+](c1ccccc1)(N(C)C)N(C)C | > 100 | – | > 100 | – | – | > 100 | > 100 | – | > 100 | – | > 100 | > 100 | – | –
14 | COc1cc2c(cc1OC)C(C1CC1)ON(C)CC2 (configuration not stated) | > 100 | – | > 100 | – | – | > 100 | > 100 | – | > 100 | – | > 100 | > 100 | – | –
15 | O=C(CN1CCCC1)Nc1ccc2c(c1)C1Oc3ccccc3CC1CO2 (configuration not stated) | > 100 | – | 68.3 | – | – | > 100 | 75.4 | – | 84.4 | – | > 100 | 50 | – | –
16 | O=c1[nH]c2ccccc2c(=O)n1/N=C\c1ccccc1O | > 100 | – | > 100 | – | – | > 100 | > 100 | – | > 100 | – | > 100 | > 100 | – | –
17 | Nc1ncnc2c1ncn2CCCNO | > 100 | – | > 100 | – | – | > 100 | > 100 | – | > 100 | – | > 100 | > 100 | – | –
18 | CCOC(=O)CCC(C(=O)OCC)n1nnc2cc(Nc3c(C)[n+]([O-])c4cc(Cl)ccc4[n+]3[O-])ccc21 (configuration not stated) | > 100 | – | > 100 | – | – | > 100 | > 100 | – | > 100 | – | > 100 | > 100 | – | –
19 | CCOC(=O)CC1C(C(=O)OCC)=Cn2c([nH]c3cccc4cccc2c43)=C1C(=O)OCC (configuration not stated) | > 100 | – | > 100 | – | – | > 100 | > 100 | – | > 100 | – | > 100 | > 100 | – | –
20 | O=C(CCCCCCCCC(=O)N1C(=O)CC(=O)N(c2ccc(Cl)cc2)C1=S)N1C(=O)CC(=O)N(c2ccc(Cl)cc2)C1=S | > 100 | – | > 100 | – | – | > 100 | > 100 | – | > 100 | – | > 100 | > 100 | – | –
21 | Nc1c(-c2ccccc2)c2ccc([N+](=O)[O-])cc2c(=O)n1-c1cccc(C(=O)O)c1 | > 100 | – | > 100 | – | – | > 100 | > 100 | – | > 100 | – | > 100 | > 100 | – | –
22 | NCC1OC(OC2C(N)CC(N)C(O)C2OC2OC(CO)C(O)C2O)C(N)C(O)C1O (configuration not stated) | > 100 | – | > 100 | – | – | > 100 | > 100 | – | > 100 | – | > 100 | > 100 | – | > 100
23 | CCOC(=O)/C=C(/OCC)[C@@H]1C(C(=O)c2ccc(Cl)cc2)[C@@H]1/C(=C\C(=O)OCC)OCC (some centres not stated) | > 51.3 | – | > 100 | – | – | > 100 | > 100 | – | > 91 | – | > 100 | > 100 | – | –
24 | C[C@]12CC[C@H]3[C@@H](CCC4=C/C(=N/OCCN5CCCCC5)CC[C@@]43C)[C@@H]1CC[C@@H]2O | 21.8 | – | 45.6 | – | – | > 100 | 36 | – | 24.7 | – | > 100 | 29.8 | – | –
25 | Cc1cc(S(=O)(=O)NC2=NCc3c(F)cccc3N2)c(S)cc1Cl | > 100 | – | > 100 | – | – | > 100 | > 100 | – | > 100 | – | > 100 | > 100 | – | –
26 | CC(C)NC(=O)OCCN=C1c2ccccc2C(Br)C(Br)c2ccccc21 (configuration not stated) | 45.8 | – | > 48.8 | – | – | > 58.1 | 29.3 | – | 8.97 | – | 18.4 | > 54.1 | – | –

— PubChem BioAssay (NCI)
